The assay addresses T1, Olfr73 (Mus musculus, UniProt Q920P2).
T1 construct: expressed in transfected cells; host or cells: Hana3A cells (HEK293T-derived), co-transfected with pRTP1S and pCRE-SEAP
T1 sequence (Q920P2 1-313): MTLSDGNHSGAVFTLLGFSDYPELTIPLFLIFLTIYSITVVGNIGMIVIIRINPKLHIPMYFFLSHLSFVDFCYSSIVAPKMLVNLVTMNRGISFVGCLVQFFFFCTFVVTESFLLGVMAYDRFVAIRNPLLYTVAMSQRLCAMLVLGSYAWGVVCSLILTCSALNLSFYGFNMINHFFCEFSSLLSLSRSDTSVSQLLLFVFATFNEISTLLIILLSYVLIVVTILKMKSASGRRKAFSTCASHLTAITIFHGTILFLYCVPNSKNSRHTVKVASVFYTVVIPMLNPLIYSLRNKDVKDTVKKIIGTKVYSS
In words: SEAP reporter assay (cAMP signalling) of Olfr73 activation in Hana3A cells. Format: cell-based. As for the experimental part:
As described in detail elsewhere[16],[45],[47] HEK293T-derived Hana3A cells (provided by Prof. Matsunami, Duke University, USA) were grown in DMEM/F12 medium (Invitrogen, Netherlands) supplemented with 10% fetal calf serum (FCS) (Invitrogen, Netherlands), maintained under selective conditions with 1 μg/ml of puromycin (Sigma, Switzerland) and kept in the incubator at 37 °C and 5% CO2. Cells were transfected with plasmid DNA using Lipofectamine 2000 (Invitrogen, Netherlands).
The assays were performed as described in detail elsewhere[16],[45],[47] twenty hours before transfection Hana3A cells were seeded into 96 wells (Greiner, Germany) at a concentration of 3.5 × 10^6 cells per ml of medium. 75 ng of pRTP1S, 150 ng of the cAMP response element fused to the secreted alkaline phosphatase (pCRE-SEAP)[89] and either 75 ng of pOlfr73[47] or 75 ng of calf thymus DNA, used as a control, were co-transfected. Compounds to be tested (Sigma, Switzerland) were diluted in DMEM/F12 without FCS and added to the cells 7 h after transfection. Cells were incubated for 16 h at 37 °C in the incubator. For the SEAP reporter assay, the culture medium was mixed with an equal volume of 1 M diethanolamine-bicarbonate, pH 9.8, containing 20 mM para-nitrophenyl-phosphate (pNPP) (Sigma, Switzerland) and 1 mM MgCl2 (Sigma, Switzerland). Absorbance was measured at 410 nm using a multiwell absorbance plate reader (Molecular Devices, USA) at 1- to 4-min intervals for a period of 5 min to determine SEAP expression dependent pNPP hydrolysis rates (A410 /min). EC50 values were determined from dose-response curves fitting experimental data with the Hill equation using IGOR Pro software (WaveMetrics):
fx=f(max)/1+EC50/x^n f(x) is the background-corrected response signal at concentration x of the investigated ligand, f(max) the maximal, background-corrected amplitude of the response signal, EC50 the half maximal effective ligand concentration, and n the Hill coefficient. Experiments were performed in triplicate.
(Reporter assays use an easily measured gene product as a stand-in for the process of interest.)

Where [1] appears, read: EC50 (in brackets, Fig. 4), Fig. 4, newly found agonists A1-A17.
Where [2] appears, read: EC50 (μM), Supplementary Table 2, cellular assays, triplicate, n.a. = no active response.
Where [3] appears, read: Fig. 4, newly found agonists A1-A17, read-out: EC50 (in brackets, Fig. 4).
The mark [4] stands for this setting: Supplementary Table 2, cellular assays, triplicate, n.a. = no active response, read-out: EC50.

Like-named read-outs stand apart in the source and are kept apart here.

Regarding `Oc1ccc(C2CCCCC2)cc1` [A3, 4-cydohexyl-phenol], the EC50 by setting is: under setting [1], 51 µM; under setting [2], 50.8 ± 0.5 µM.

In the case of `COc1cc2c(cc1OC)CCCC2` [A7, 6,7-dimethoxy-1,2,3,4-tetrahydronaphthalene], the EC50 was determined as 88 µM under setting [3] and 88.4 ± 1.3 µM under setting [4].

As for `C/C=C/c1ccc(OCC)c(OC)c1` [A11, isoeugenylethylether], the EC50 under setting [4] was determined as 193 ± 3 µM.

Regarding `COc1cc(C(C)(C)C)ccc1O` [A4, 4-tert-butyl-2-methoxyphenol], the EC50 runs as follows: under setting [3], 56 µM; under setting [4], 55.6 ± 0.7 µM.

Regarding `CC/C=C/c1ccc(OC)c(OC)c1` [A8, (E)-4-(but-1-en-1-yl)-1,2-dimethoxybenzene], the EC50 was found to be 93 µM under setting [1] and 92.5 ± 0.9 µM under setting [2].

`CCOC(=O)c1ccc(O)c(OC)c1` [A16, ethylvanillate] had an EC50 under setting [2] of 505 ± 109 µM.

Regarding `CC(=O)c1cc(C)c(O)cc1C` [A2, 2’,5’-dimethyl -4’hydroxyacetophenone], the EC50 under setting [4] was 16 ± 1.5 µM.

In turn, `CCCc1ccc(O)c(OC)c1` [A5, dihydroeugenol] returned an EC50 under setting [2] of 61 ± 6.9 µM.

With `CCCCCC1CCC(=O)CC1` [A6, 4-pentylcyclohexanone], the EC50 under setting [3] was 63 µM and the EC50 under setting [4] was determined as 63.1 ± 1.5 µM.

Consider `C=CCc1cc(C(C)=O)ccc1O` [A9, 1-(3-allyl-4-hydroxyphenyl)-ethanone], for which the EC50 under setting [1] worked out at 97 µM and a half-maximal response under setting [2] (EC50) required 96.9 ± 1.7 µM.

For the compound `CC(C)=C[C@H]1C[C@H](C)CCO1` [A17, (2R,4R)-4-methyl-2-(2-methylprop-1-en-1-yl)-tetrahydro-2H-pyran], the half-maximal effective concentration (EC50) under setting [4] came out at 627 ± 62 µM.

Turning to `COc1cc2ccccc2cc1OC` [A10, 2,3-dimethoxynaphthalene], the concentration for a half-maximal effect (EC50) under setting [4] came out at 120 ± 1 µM.

In the case of `CCC(=O)c1ccc(O)cc1` [A15, 4-hydroxypropiophenone], under setting [4], the EC50 is 502 ± 315 µM.

As to `CC(=O)c1cc(C)c(O)c(C)c1` [A13, 4-hydroxy-3,5-dimethylacetophenone], the EC50 under setting [4] came out at 250 ± 3 µM.

Take `CC(C)Cc1ccc(O)cc1` [A1, p-isobutylphenol]: the EC50 under setting [3] amounted to 13 µM and the EC50 under setting [4] is 12.9 ± 0.9 µM. For the same compound, the “agonist activity at Olfr73 (SEAP signal)” value (Hana3A cells, compounds predicted from virtual screening) is given as “most potent ligand”.

For orientation: EC50 means the midpoint of the concentration-response curve.

The values above are taken from publication PMC6478719 (Communications Biology, 2019).
